Measured values as given in article PMC8881077 (Journal of Enzyme Inhibition and Medicinal Chemistry, 2022).

Key:
ratAChE = biological target: T1, ratAChE (Rattus norvegicus, UniProt P37136); experiment: biochemical; details: for SI: Selectivity Index = IC50 (BuChE)/IC50 (AChE), rat enzymes; for IC50: from 5% rat cortex homogenate, read-out: IC50 ± SD ratAChE
T1 construct: AChE from 5% rat cortex homogenate or human erythrocytes (Sigma Co.); from tissue; host or cells: 5% rat cortex homogenate
T1 sequence (P37136 32-614): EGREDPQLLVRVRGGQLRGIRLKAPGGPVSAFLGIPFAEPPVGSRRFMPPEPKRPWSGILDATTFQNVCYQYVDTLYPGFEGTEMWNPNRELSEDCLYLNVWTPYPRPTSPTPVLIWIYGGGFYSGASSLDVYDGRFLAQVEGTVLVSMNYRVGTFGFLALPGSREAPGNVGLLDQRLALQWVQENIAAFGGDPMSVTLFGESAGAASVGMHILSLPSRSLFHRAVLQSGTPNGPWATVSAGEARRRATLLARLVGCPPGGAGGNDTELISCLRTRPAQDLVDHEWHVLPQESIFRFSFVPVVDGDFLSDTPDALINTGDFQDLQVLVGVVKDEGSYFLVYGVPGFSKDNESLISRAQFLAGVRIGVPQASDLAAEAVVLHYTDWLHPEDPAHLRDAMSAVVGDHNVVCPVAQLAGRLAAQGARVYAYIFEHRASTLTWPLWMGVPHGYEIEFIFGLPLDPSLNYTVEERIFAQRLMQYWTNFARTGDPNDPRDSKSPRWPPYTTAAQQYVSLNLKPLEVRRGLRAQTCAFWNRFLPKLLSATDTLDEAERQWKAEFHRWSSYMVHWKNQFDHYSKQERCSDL
Protocol: (§1) The AChE and BuChE inhibitory activities of the synthesised compounds were evaluated using the Ellman assay with slight modification. AChE from 5% rat cortex homogenate or human erythrocytes (Sigma Co.). BuChE from rat serum or human serum (Sigma Co.).

[1] = Trolox as standard
Protocol: The skeleton compounds naringenin and apigenin were also evaluated for comparison purposes, and vitamin E analogue Trolox was used as a standard.
The antioxidant potency of target compounds was tested using an oxygen radical absorbance capacity fluorescein (ORAC-FL) assay.

ratBuChE = biological target: T2, ratBuChE (Rattus norvegicus, UniProt Q9JKC1); experiment: ratBuChE inhibition, modified Ellman's method; format: biochemical
T2 construct: BuChE from rat serum or human serum (Sigma Co.); from tissue; host or cells: rat serum
T2 sequence (Q9JKC1 24-597): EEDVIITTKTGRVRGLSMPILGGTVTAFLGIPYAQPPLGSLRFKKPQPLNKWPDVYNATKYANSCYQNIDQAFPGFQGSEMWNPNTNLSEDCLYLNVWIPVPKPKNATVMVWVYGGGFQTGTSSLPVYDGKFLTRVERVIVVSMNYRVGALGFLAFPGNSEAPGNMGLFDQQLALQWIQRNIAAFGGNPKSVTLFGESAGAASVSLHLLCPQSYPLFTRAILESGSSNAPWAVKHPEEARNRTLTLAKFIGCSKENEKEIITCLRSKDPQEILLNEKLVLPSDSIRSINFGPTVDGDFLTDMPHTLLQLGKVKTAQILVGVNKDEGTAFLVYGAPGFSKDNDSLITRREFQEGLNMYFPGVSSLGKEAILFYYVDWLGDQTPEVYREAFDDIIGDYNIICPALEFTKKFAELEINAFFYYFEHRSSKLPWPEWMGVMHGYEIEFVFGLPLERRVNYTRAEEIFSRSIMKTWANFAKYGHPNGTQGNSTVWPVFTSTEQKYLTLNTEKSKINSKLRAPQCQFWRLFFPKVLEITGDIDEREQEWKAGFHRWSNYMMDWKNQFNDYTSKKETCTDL
Protocol: as §1

Row | SMILES | SI (ratAChE) | IC50 (ratAChE) [µM] | ORAC [1] | IC50 (ratBuChE) [µM]
1 | O=C1CC(c2ccc(OCCCCN3CCN(Cc4ccccc4)CC3)cc2)Oc2cc(OCCCCN3CCN(Cc4ccccc4)CC3)cc(O)c21 (centres unmarked) [Compound 7i, 7–(4-(4-benzylpiperazin-1-yl)butoxy)-2–(4–(4-(4-benzylpiperazin-1-yl)butoxy)phenyl)-5-hydroxychroman-4-one] | 2.0 | 6.1 ± 0.21 | 1.4 ± 0.03 μM of Trolox equivalent/μM of tested compound | 12.3 ± 0.16
2 | CCN(CCCCCCOc1ccc(C2CC(=O)c3c(O)cc(OCCCCCCN(CC)Cc4ccccc4)cc3O2)cc1)Cc1ccccc1 (centres unmarked) [Compound 7l] | 6.9 | 2.2 ± 0.13 | 1.2 ± 0.01 μM of Trolox equivalent/μM of tested compound | 15.1 ± 0.28
3 | O=c1cc(-c2ccc(OCCCN3CCc4ccccc4C3)cc2)oc2cc(OCCCN3CCc4ccccc4C3)cc(O)c12 [Compound 10a, 7–(3-(3,4-dihydroisoquinolin-2(1H)-yl)propoxy)-2–(4-(3–(3,4-dihydroisoquinolin-2(1H)-yl)propoxy)phenyl)-5-hydroxy-4H-chromen-4-one] | 2.1 | 8.1 ± 0.27 | 1.1 ± 0.01 μM of Trolox equivalent/μM of tested compound | 16.8 ± 0.36
4 | CCN(CCCOc1ccc(-c2cc(=O)c3c(O)cc(OCCCN(CC)Cc4ccccc4)cc3o2)cc1)Cc1ccccc1 [Compound 10b, 7–(3-(benzyl(ethyl)amino)propoxy)-2–(4-(3-(benzyl(ethyl)amino)propoxy)phenyl)-5-hydroxy-4H-chromen-4-one] | 4.3 | 4.3 ± 0.38 | 1.0 ± 0.04 μM of Trolox equivalent/μM of tested compound | 18.6 ± 0.24
5 | O=c1cc(-c2ccc(OCCCN3CCC(Cc4ccccc4)CC3)cc2)oc2cc(OCCCN3CCC(Cc4ccccc4)CC3)cc(O)c12 [Compound 10c, 7–(3-(4-benzylpiperidin-1-yl)propoxy)-2–(4-(3–(4-benzylpiperidin-1-yl)propoxy)phenyl)-5-hydroxy-4H-chromen-4-one] | 2.5 | 5.5 ± 0.17 | 1.2 ± 0.03 μM of Trolox equivalent/μM of tested compound | 13.6 ± 0.67
6 | O=c1cc(-c2ccc(OCCCN3CCC(c4ccccc4)CC3)cc2)oc2cc(OCCCN3CCC(c4ccccc4)CC3)cc(O)c12 [Compound 10d, 5-hydroxy-7–(3-(4-phenylpiperidin-1-yl)propoxy)-2–(4-(3–(4-phenylpiperidin-1-yl)propoxy)phenyl)-4H-chromen-4-one] | 2.4 | 6.4 ± 0.22 | 1.1 ± 0.02 μM of Trolox equivalent/μM of tested compound | 15.1 ± 0.49
7 | O=c1cc(-c2ccc(OCCCN3CCC(CCCc4ccccc4)CC3)cc2)oc2cc(OCCCN3CCC(CCCc4ccccc4)CC3)cc(O)c12 [Compound 10e, 5-hydroxy-7–(3-(4–(3-phenylpropyl)piperidin-1-yl)propoxy)-2–(4-(3–(4–(3-phenylpropyl)piperidin-1-yl)propoxy)phenyl)-4H-chromen-4-one] |  | 7.9 ± 0.26 | 1.1 ± 0.02 μM of Trolox equivalent/μM of tested compound | 13.8 ± 0.43
8 | CC1CC(C)CN(CCCOc2ccc(-c3cc(=O)c4c(O)cc(OCCCN5CC(C)CC(C)C5)cc4o3)cc2)C1 (centres unmarked) [Compound 10f, 7–(3-(3,5-dimethylpiperidin-1-yl)propoxy)-2–(4-(3–(3,5-dimethylpiperidin-1-yl)propoxy)phenyl)-5-hydroxy-4H-chromen-4-one] | 1.9 | 8.6 ± 0.33 | 1.0 ± 0.04 μM of Trolox equivalent/μM of tested compound | 16.7 ± 0.52
9 | O=c1cc(-c2ccc(OCCCCN3CCc4ccccc4C3)cc2)oc2cc(OCCCCN3CCc4ccccc4C3)cc(O)c12 [Compound 10g, 7–(4-(3,4-dihydroisoquinolin-2(1H)-yl)butoxy)-2–(4-(4–(3,4-dihydroisoquinolin-2(1H)-yl)butoxy)phenyl)-5-hydroxy-4H-chromen-4-one] | 3.8 | 4.6 ± 0.21 | 1.2 ± 0.03 μM of Trolox equivalent/μM of tested compound | 17.4 ± 0.35
10 | O=c1cc(-c2ccc(OCCCCN3CCN(Cc4ccccc4)CC3)cc2)oc2cc(OCCCCN3CCN(Cc4ccccc4)CC3)cc(O)c12 [Compound 10i, 7–(4-(4-Benzylpiperazin-1-yl)butoxy)-2–(4–(4-(4-benzylpiperazin-1-yl)butoxy)phenyl)-5-hydroxy-4H-chromen-4-one] |  | 6.9 ± 0.14 | 1.5 ± 0.02 μM of Trolox equivalent/μM of tested compound | 10.3 ± 0.19
11 | O=c1cc(-c2ccc(OCCCCN3CCC(Cc4ccccc4)CC3)cc2)oc2cc(OCCCCN3CCC(Cc4ccccc4)CC3)cc(O)c12 [Compound 10j, 7–(4-(4-Benzylpiperidin-1-yl)butoxy)-2–(4–(4-(4-benzylpiperidin-1-yl)butoxy)phenyl)-5-hydroxy-4H-chromen-4-one] | 8.7 | 1.8 ± 0.04 | 1.2 ± 0.03 μM of Trolox equivalent/μM of tested compound | 15.7 ± 0.24
12 | O=c1cc(-c2ccc(OCCCCCN3CCC(Cc4ccccc4)CC3)cc2)oc2cc(OCCCCCN3CCC(Cc4ccccc4)CC3)cc(O)c12 [Compound 10m, 7-((5–(4-benzylpiperidin-1-yl)pentyl)oxy)-2–(4-((5–(4-benzylpiperidin-1-yl)pentyl)oxy)phenyl)-5-hydroxy-4H-chromen-4-one] | 12.8 | 1.3 ± 0.08 | 1.2 ± 0.02 μM of Trolox equivalent/μM of tested compound | 16.6 ± 0.27
13 | O=c1cc(-c2ccc(OCCCCCN3CCC(c4ccccc4)CC3)cc2)oc2cc(OCCCCCN3CCC(c4ccccc4)CC3)cc(O)c12 [Compound 10n, 5-hydroxy-7-((5–(4-phenylpiperidin-1-yl)pentyl)oxy)-2–(4-((5–(4-phenylpiperidin-1-yl)pentyl)oxy)phenyl)-4H-chromen-4-one] | 4.9 | 3.6 ± 0.11 | 1.1 ± 0.04 μM of Trolox equivalent/μM of tested compound | 17.9 ± 0.46
14 | O=c1cc(-c2ccc(OCCCCCN3CCC(CCCc4ccccc4)CC3)cc2)oc2cc(OCCCCCN3CCC(CCCc4ccccc4)CC3)cc(O)c12 [Compound 10o, 5-hydroxy-7-((5–(4-(3-phenylpropyl)piperidin-1-yl)pentyl)oxy)-2–(4-((5–(4–(3-phenylpropyl)piperidin-1-yl)pentyl)oxy)phenyl)-4H-chromen-4-one] | 3.9 | 4.1 ± 0.63 | 1.2 ± 0.03 μM of Trolox equivalent/μM of tested compound | 16.1 ± 0.25
15 | CC1CC(C)CN(CCCCCOc2ccc(-c3cc(=O)c4c(O)cc(OCCCCCN5CC(C)CC(C)C5)cc4o3)cc2)C1 (centres unmarked) [Compound 10p, 7-((5–(3,5-dimethylpiperidin-1-yl)pentyl)oxy)-2–(4-((5–(3,5-dimethylpiperidin-1-yl)pentyl)oxy)phenyl)-5-hydroxy-4H-chromen-4-one] | 2.2 | 6.2 ± 0.54 | 1.1 ± 0.02 μM of Trolox equivalent/μM of tested compound | 13.8 ± 0.37
16 | O=c1cc(-c2ccc(OCCCCCCN3CCc4ccccc4C3)cc2)oc2cc(OCCCCCCN3CCc4ccccc4C3)cc(O)c12 [Compound 10q, 7-((6–(3,4-dihydroisoquinolin-2(1H)-yl)hexyl)oxy)-2–(4-((6–(3,4-dihydroisoquinolin-2(1H)-yl)hexyl)oxy)phenyl)-5-hydroxy-4H-chromen-4-one] | 2.9 | 4.2 ± 0.15 | 1.0 ± 0.02 μM of Trolox equivalent/μM of tested compound | 12.2 ± 0.28
17 | CCN(CCCCCCOc1ccc(-c2cc(=O)c3c(O)cc(OCCCCCCN(CC)Cc4ccccc4)cc3o2)cc1)Cc1ccccc1 [Compound 10r, 7-((6-(benzyl(ethyl)amino)hexyl)oxy)-2–(4-((6-(benzyl(ethyl)amino)hexyl)oxy)phenyl)-5-hydroxy-4H-chromen-4-one] | 8.3 | 1.7 ± 0.21 | 1.2 ± 0.04 μM of Trolox equivalent/μM of tested compound | 14.1 ± 0.22
18 | O=c1cc(-c2ccc(OCCCCCCN3CCC(Cc4ccccc4)CC3)cc2)oc2cc(OCCCCCCN3CCC(Cc4ccccc4)CC3)cc(O)c12 [Compound 10s, 7-((6–(4-benzylpiperidin-1-yl)hexyl)oxy)-2–(4-((6–(4-benzylpiperidin-1-yl)hexyl)oxy)phenyl)-5-hydroxy-4H-chromen-4-one] | 6.5 | 2.6 ± 0.33 | 1.1 ± 0.03 μM of Trolox equivalent/μM of tested compound | 16.9 ± 0.54
19 | O=c1cc(-c2ccc(OCCCCCCN3CCC(c4ccccc4)CC3)cc2)oc2cc(OCCCCCCN3CCC(c4ccccc4)CC3)cc(O)c12 [Compound 10t, 5-hydroxy-7-((6–(4-phenylpiperidin-1-yl)hexyl)oxy)-2–(4-((6–(4-phenylpiperidin-1-yl)hexyl)oxy)phenyl)-4H-chromen-4-one] | 3.3 | 5.9 ± 0.37 | 1.0 ± 0.02 μM of Trolox equivalent/μM of tested compound | 19.3 ± 0.67
